Measurements as given in patent publication US6953813B1, “2-Aminotetralin derivatives for the therapy of glaucoma” (Chiesi Farmaceutici S.p.A., priority 1999, dated 2005).

Assays:
Format in all cases: in vivo, rabbit
[1] = test system: normotensive Dutch Belted rabbits; test: Eye irritation by extent of eyelid closure after topical eyedrop; details: single dose 25 μl of 0.5%, 0.2%, 0.05% and 0.01% solution
Method: (§1) The experimental animals used were normotensive Dutch Belted rabbits of either gender (n=6). A single drop (25 μl) of the test solution was instilled unilaterally into the left eye (treated eye). IOP of the rabbits (treated and untreated eyes) was measured at 1 and 0 h before, and at 0.5, 1, 2, 3, 4, 5, 6 and 7 h after topical eyedrop administration. IOP at the time of eyedrop administration (0 h) was used as a baseline value. IOP was measured using a BioRad Pneumatonometer. More detailed description of the IOP measurement procedure can be found in Pharm. Res. 14, 1738-1743, 1997 and Curr. Eye Res. 14, 791-797, 1995. All the studies were set up using a randomized crossover design. At least 72 h of wash-out time was allowed for each rabbit between dosings. The irritation caused by an instilled eyedrop were evaluated by recording the extent of eyelid closure after topical eyedrop administration.

[2] = test system: New-Zealand albino rabbits; test: IOP after single dose in rabbits with water-increased IOP; details: two drops of 5% solution per eye, one hour before 200 ml oral water
Method: A study versus placebo was carried out in 20 New-Zealand albino rabbits to evaluate the effects of CHF 1035 after single administration. Basal intraocular pressure (IOP) was measured in anaesthetized rabbits in both eyes. Each eye received two drops of physiological solution containing 5% of the drug. Control animals received only physiological solution. After one hour, the animals were administered by oral route with a total amount of 200 ml of distilled water. IOP increased within about one hour and normalized after about 3 hours. As no differences in IOP were observed between the two eyes, the respective tonometric curves were superimposed. IOP measurements were carried out by using a Goldman tonometer and were repeated one hour after the administration of water.
Values are expressed as mean (SE^132 1.6-2.7). The total number of eyes per group is in brackets.

[3] = test system: normotensive Dutch Belted rabbits; test: Intraocular pressure (IOP) after single dose in normotensive rabbits
Method: Water (pH 4.5, made isotonic with sodium chloride), was selected as vehicle for the IOP-studies.
Five concentrations (0.01, 0.05, 0.2, 0.5 and 1.0% w/v) of CHF 1035 were studied. Brimonidine (0.2% w/v) was used as a positive, and vehicle (water pH 4.5) as a negative control.
as §1

[4] = topical single dose, normotensive rabbits

CNC1CCc2c(ccc(OC(=O)C(C)C)c2OC(=O)C(C)C)C1 (racemic) [CHF 1035, (±)-(R,S)-5,6-diisobutyryloxy-2-methylaminotetralin]
eye irritation (eyelid closure) [1]: no eyelid closure was observed | IOP after water loading versus control animals [2]: IOP value significantly lower than control animals | duration of action compared with brimonidine ([3]; normotensive rabbits): longer duration of action than brimonidine | effectiveness in decreasing IOP compared with brimonidine ([3]; normotensive rabbits): more effective in decreasing IOP than brimonidine | onset of action ([3]; normotensive rabbits): late onset of action | IOP decrease in the untreated eye [3, 4]: no significant IOP decrease is observed in the untreated eye | effect on IOP in the treated eye [3, 4]: decreases significantly the IOP in the treated eye | IOP changes (mean ± SEM) in the treated eye ([3]; 0.01% w/v, 0 min): 0.0 ± 0.0 mmHg | IOP changes (mean ± SEM) in the treated eye ([3]; 0.01% w/v, 30 min): −1.9 ± 0.9 mmHg | IOP changes (mean ± SEM) in the treated eye ([3]; 0.01% w/v, 60 min): −4.2 ± 1.1 mmHg | IOP changes (mean ± SEM) in the treated eye ([3]; 0.01% w/v, 120 min): −5.3 ± 0.7 mmHg | IOP changes (mean ± SEM) in the treated eye ([3]; 0.01% w/v, 180 min): −5.0 ± 1.0 mmHg | IOP changes (mean ± SEM) in the treated eye ([3]; 0.01% w/v, 240 min): −4.5 ± 1.3 mmHg | IOP changes (mean ± SEM) in the treated eye ([3]; 0.01% w/v, 300 min): −4.3 ± 0.9 mmHg | IOP changes (mean ± SEM) in the treated eye ([3]; 0.01% w/v, 360 min): −2.6 ± 0.6 mmHg | IOP changes (mean ± SEM) in the treated eye ([3]; 0.01% w/v, 420 min): −1.3 ± 0.8 mmHg | IOP changes (mean ± SEM) in the treated eye ([3]; 0.05% w/v, 0 min): 0.0 ± 0.0 mmHg | IOP changes (mean ± SEM) in the treated eye ([3]; 0.05% w/v, 30 min): −0.4 ± 0.5 mmHg | IOP changes (mean ± SEM) in the treated eye ([3]; 0.05% w/v, 60 min): −3.3 ± 0.4 mmHg | IOP changes (mean ± SEM) in the treated eye ([3]; 0.05% w/v, 120 min): −6.5 ± 0.9 mmHg | IOP changes (mean ± SEM) in the treated eye ([3]; 0.05% w/v, 180 min): −6.3 ± 0.9 mmHg | IOP changes (mean ± SEM) in the treated eye ([3]; 0.05% w/v, 240 min): −6.7 ± 0.8 mmHg | IOP changes (mean ± SEM) in the treated eye ([3]; 0.05% w/v, 300 min): −6.4 ± 0.8 mmHg | IOP changes (mean ± SEM) in the treated eye ([3]; 0.05% w/v, 360 min): −5.5 ± 0.7 mmHg | IOP changes (mean ± SEM) in the treated eye ([3]; 0.05% w/v, 420 min): −4.3 ± 0.5 mmHg | IOP changes (mean ± SEM) in the treated eye ([3]; 0.2% w/v, 0 min): 0.0 ± 0.0 mmHg | IOP changes (mean ± SEM) in the treated eye ([3]; 0.2% w/v, 30 min): 0.8 ± 0.9 mmHg | IOP changes (mean ± SEM) in the treated eye ([3]; 0.2% w/v, 60 min): −0.4 ± 1.1 mmHg | IOP changes (mean ± SEM) in the treated eye ([3]; 0.2% w/v, 120 min): −2.1 ± 0.7 mmHg | IOP changes (mean ± SEM) in the treated eye ([3]; 0.2% w/v, 180 min): −6.0 ± 0.9 mmHg | IOP changes (mean ± SEM) in the treated eye ([3]; 0.2% w/v, 240 min): −6.3 ± 1.0 mmHg | IOP changes (mean ± SEM) in the treated eye ([3]; 0.2% w/v, 300 min): −7.6 ± 1.5 mmHg | IOP changes (mean ± SEM) in the treated eye ([3]; 0.2% w/v, 360 min): −6.9 ± 1.0 mmHg | IOP changes (mean ± SEM) in the treated eye ([3]; 0.2% w/v, 420 min): −5.7 ± 1.1 mmHg | IOP changes (mean ± SEM) in the treated eye ([3]; 0.5% w/v, 0 min): 0.0 ± 0.0 mmHg | IOP changes (mean ± SEM) in the treated eye ([3]; 0.5% w/v, 30 min): 1.8 ± 0.6 mmHg | IOP changes (mean ± SEM) in the treated eye ([3]; 0.5% w/v, 60 min): 1.2 ± 0.7 mmHg | IOP changes (mean ± SEM) in the treated eye ([3]; 0.5% w/v, 120 min): 0.1 ± 0.7 mmHg | IOP changes (mean ± SEM) in the treated eye ([3]; 0.5% w/v, 180 min): −5.0 ± 1.2 mmHg | IOP changes (mean ± SEM) in the treated eye ([3]; 0.5% w/v, 240 min): −5.6 ± 0.6 mmHg | IOP changes (mean ± SEM) in the treated eye ([3]; 0.5% w/v, 300 min): −7.9 ± 0.9 mmHg | IOP changes (mean ± SEM) in the treated eye ([3]; 0.5% w/v, 360 min): −6.9 ± 0.8 mmHg | IOP changes (mean ± SEM) in the treated eye ([3]; 0.5% w/v, 420 min): −7.0 ± 0.8 mmHg | IOP changes (mean ± SEM) in the treated eye ([3]; 1.0% w/v, 0 min): 0.0 ± 0.0 mmHg | IOP changes (mean ± SEM) in the treated eye ([3]; 1.0% w/v, 30 min): 1.3 ± 0.9 mmHg | IOP changes (mean ± SEM) in the treated eye ([3]; 1.0% w/v, 60 min): 0.4 ± 1.0 mmHg | IOP changes (mean ± SEM) in the treated eye ([3]; 1.0% w/v, 120 min): 0.1 ± 0.9 mmHg | IOP changes (mean ± SEM) in the treated eye ([3]; 1.0% w/v, 180 min): −3.2 ± 1.8 mmHg | IOP changes (mean ± SEM) in the treated eye ([3]; 1.0% w/v, 240 min): −4.9 ± 1.5 mmHg
